This note sets out measurements from paper PMC11089204 (Frontiers in Pharmacology, 2024).

Data set [1] has as its target T1, recombinant human UGT1A10 (Homo sapiens, UniProt Q9HAW8).
T1 construct: purchased Corning Life Sciences B.V
T1 sequence (Q9HAW8 26-530): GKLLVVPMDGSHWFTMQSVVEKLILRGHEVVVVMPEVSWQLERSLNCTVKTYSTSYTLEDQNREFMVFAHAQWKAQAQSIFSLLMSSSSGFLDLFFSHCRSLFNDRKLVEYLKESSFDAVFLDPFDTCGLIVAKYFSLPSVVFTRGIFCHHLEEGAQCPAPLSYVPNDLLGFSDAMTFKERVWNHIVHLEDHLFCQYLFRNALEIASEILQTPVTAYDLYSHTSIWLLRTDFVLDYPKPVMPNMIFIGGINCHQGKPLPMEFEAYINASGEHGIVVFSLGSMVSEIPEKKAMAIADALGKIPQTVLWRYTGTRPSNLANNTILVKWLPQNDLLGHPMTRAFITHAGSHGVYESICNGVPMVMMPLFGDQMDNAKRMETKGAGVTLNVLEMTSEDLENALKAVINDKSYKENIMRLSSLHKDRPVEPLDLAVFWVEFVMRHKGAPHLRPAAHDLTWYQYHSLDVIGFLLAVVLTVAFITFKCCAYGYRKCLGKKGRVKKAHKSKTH
The experiment in a line: Glucuronidation with recombinant UGT1A10. The data set is classed as in vitro ADME. Particulars: for psilocin concentration (mean ± SD): 1,000 nM psilocin. As to the method:
(§1) Corning UltraPool human liver microsomes (HLM) 150 (20 mg/mL), human intestinal microsomes (HIM) pool (10 mg/mL) as well as recombinant human CYP enzymes (with P450 oxidoreductase, OR) including CYP1A2+OR (0.5 nmol), CYP2B6+OR (0.5 nmol), CYP2C8+OR (1.0 nmol), CYP2C9*1+OR (1 nmol), CYP2C19+OR (0.5 nmol), CYP2D6*1+OR (0.5 nmol), CYP2E1+OR + cytochrome b5 (1 nmol), CYP3A4+OR + cytochrome b5 (0.5 nmol), MAO-A (5 mg/mL), MAO-B (5 mg/mL), and UGT1A10 (5 mg/mL) were purchased from Corning Life Sciences B.V (Amsterdam, Netherlands). All microsomes and recombinant enzyme solutions were aliquoted and stored at −80 °C until further use.
The assay described in section 2.5.1 was adjusted to suit the glucuronidation system.

The next data set addresses T2, recombinant CYP2C19 (Homo sapiens, UniProt P33261).
T2 construct: purchased Corning Life Sciences B.V
The experiment in a line: Incubation with recombinant CYP2C19 enzymes. The data set is classed as in vitro ADME. The settings on record: 1,000 nM psilocin, rec. CYP2C19. On the procedure:
as §1
The total volume of the reaction mixture was 500 μL. […] Samples were either directly analyzed by liquid chromatography tandem mass spectrometry (LC-MS/MS) or briefly stored at −20°C until analysis.

T2 sequence (P33261 whole entry): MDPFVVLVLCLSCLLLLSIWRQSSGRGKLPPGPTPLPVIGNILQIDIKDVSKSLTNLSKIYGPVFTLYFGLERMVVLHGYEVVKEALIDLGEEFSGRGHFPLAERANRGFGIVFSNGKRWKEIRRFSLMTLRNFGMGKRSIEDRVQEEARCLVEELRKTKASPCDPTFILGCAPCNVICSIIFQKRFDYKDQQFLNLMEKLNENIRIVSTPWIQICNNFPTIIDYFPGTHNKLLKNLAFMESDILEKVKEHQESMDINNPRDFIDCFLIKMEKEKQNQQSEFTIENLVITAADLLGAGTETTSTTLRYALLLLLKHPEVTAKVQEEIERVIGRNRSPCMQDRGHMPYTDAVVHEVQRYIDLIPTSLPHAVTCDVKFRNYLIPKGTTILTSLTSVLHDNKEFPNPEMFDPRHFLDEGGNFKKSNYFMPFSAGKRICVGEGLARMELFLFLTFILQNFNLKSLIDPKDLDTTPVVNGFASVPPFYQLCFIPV

With `CN(C)CCc1c[nH]c2cccc(O)c12` [psilocin, 4-hydroxy-N,N-dimethyltryptamine], the “psilocin concentration (mean ± SD)” value was 1,029 ± 60 nM in data set [1] (rec. UGT1A10, t = 0 min) and 979 ± 95 nM in data set [1] (rec. UGT1A10, t = 240 min). In addition, the psilocin concentration was 980 ± 77 nM in data set [1] (absence of UGT1A10, t = 0) and 893 ± 91 nM in data set [1] (absence of UGT1A10, t = 240). Besides, on recombinant CYP2C19, the metabolism of psilocin entry was “did not metabolize”.
